In brackets after ≈: the same amount, converted by molar mass.
Assays:
[1] = tested on: nausea and vomiting; conditions: anti-emetic; cited from earlier work
[2] = Merck Index, 12th Ed, 984; cited from earlier work
[3] = physchem; conditions: 25 °C, pH 3, aqueous buffer, thermodynamic from solid, aqueous solubility of meclizine at pH 3.0
Method: (§1) Five HPBCD and five SBECD solutions in 0.5 M citric acid buffer (pH of 3.0) are prepared, with HPBCD and SBECD concentrations of 50; 100; 150 and 200 mg/ml. 3 ml of the various buffered HPBCD and SBECD solutions are placed in 4 ml vials. 75-100 mg meclizine is added to each vial, such that excess meclizine is provided. The vials are sealed and are shaken on an orbital shaker for 24 hours at 200 rpm and 25° C. Following the shaking, the vials are filtered through 0.45 μm filters to remove any excess solute. The remaining solution is assayed by HPLC for meclizine content.

[4] = physchem; conditions: 25 °C, pH 4, aqueous buffer, thermodynamic from solid, aqueous solubility of meclizine at pH 4.0
Method: as §1, with “(pH of 4.0) are prepared,” for “(pH of 3.0) are prepared,”, “concentrations of 0; 50; 100;” for “concentrations of 50; 100;”, “ml vials. 50-100 mg meclizine” for “ml vials. 75-100 mg meclizine”, “meclizine is available. The vials” for “meclizine is provided. The vials”

[5] = pH-dependent solubility of meclizine cyclodextrin complexes in 0.5 M citric buffer; assay type: physicochemical; conditions: HPBCD 200 mg/ml, above pH of about 5, compared with non-chemically modified CDs
[6] = Solubility of meclizine with cyclodextrins in ddH2O, HPLC; assay type: physicochemical; conditions: alpha-CD 0-100 mg/ml, gamma-CD, HPBCD and SBECD at 200 mg/ml versus no CD
Method: FIG. 1A depicts solubility data of meclizine complexed with non-chemically modified cyclodextrins (α-CD at 0-100 mg/ml, γ-CD at 200 mg/ml), chemically modified cyclodextrins (HPBCD and SBECD) at 200 mg/ml, and with no CD complexation in ddH2O. Solutions were prepared by adding excess meclizine to ddH2O samples with varying quantities of the different cyclodextrins. These samples were shaken for 24 hours at 200 rpm. Following the shaking, the vial contents were filtered through 0.45 μm filters to remove any excess solute. The remaining solution was assayed by HPLC for meclizine content.

[7] = Aqueous solubility of meclizine versus pH, 0.1 M citric acid buffer and ddH2O, HPLC; assay type: physicochemical; conditions: for solubility at 24 h: thermodynamic from solid
Method: Citric acid (0.1M) buffer solutions are prepared with pH's of 1.0; 2.0; 3.0; 4.0, and 5.0 in ddH2O (de-oxygenated water by purging with nitrogen gas). 2 ml of each buffer are placed in 4 ml vials and 2 ml ddH2O is placed in a 4 ml vial. 20 mg meclizine HCl is added to each vial. The vials are sealed and are shaken on an orbital shaker for 24 hours at 200 rpm. Following the shaking, the vial contents are filtered through 0.45 μm filters to remove any excess solute. The remaining solution is assayed by HPLC for meclizine content.

solubility at 24 h [3]	solubility at 24 h [4]	solubility of meclizine in HPBCD at higher pH [5]	solubility of meclizine with cyclodextrins [6]	aqueous solubility of meclizine ([7]; 0.1 M citric acid buffer, about pH 5.0, shaken 24 hours)	solubility at 24 h ([7]; aqueous buffer, 0.1 M citric acid buffer, pH 1.0, shaken 24 hours, read-out: aqueous solubility of meclizine)	solubility at 24 h ([7]; ddH2O (de-oxygenated water), pH 2, water, ddH2O, measured pH of about 2.0, shaken 24 hours, read-out: aqueous solubility of meclizine in ddH2O)	Compound	duration of action [1]	water solubility [2]
							CN1CCN(C(c2ccccc2)c2ccccc2)CC1 [cyclizine]	1 to 2 h	
							Cc1cccc(CN2CCN(C(c3ccccc3)c3ccc(Cl)cc3)CC2)c1.Cl.Cl (stereo not shown) [meclizine HCl, 1-(4-chlorobenzhydryl)-4-(3-methylbenzyl)-piperazine dihydrochloride]		0.1 g/100 ml
~300 µg/mL (≈ 767 µM)	~10 µg/mL (≈ 25.6 µM)	improved solubility	improved solubility	below the limit of detection	~1500 µg/mL (≈ 3840 µM)	~3800 µg/mL (≈ 9720 µM)	Cc1cccc(CN2CCN(C(c3ccccc3)c3ccc(Cl)cc3)CC2)c1 (stereo not shown) [meclizine, 1-(4-chlorobenzhydryl)-4-(3-methylbenzyl)-piperazine]	up to 24 hours	

Reference: patent US8293749B2, “Injectable meclizine formulations and methods” (Genebiology, Inc., priority 2007, dated 2012)
